According to patent US6479283B1, “Stimulation, culture and preservation of pancreatic cells” (Ascendia AB, priority 1997, dated 2002):

Experiments:
[1] = tested on: naked mice with induced diabetes; assay: Transplantation of cultured ICC in naked mice with alloxan-induced diabetes; format: in vivo; details: second series, 1×3 μl ICC; 1 mM DG added to HPMC culture medium
Text: Transplantation in Naked Mice with Induced Diabetes
Diabetes was induced in naked mice by injection of alloxan (Dunn, J S, and McLetchie, Lancet 2 (1943) 384; Boquist L, Acta Pathol. Microbiol. Scand., Sect. A, 88 (1980) 201) resulting in […] within a few days indicated by blood glucose levels >25 mm. After about one week intact ICCs from other mice of this strain were transplanted to the […] anaesthetized animals. An incision was made in the abdominal wall and the left kidney was mobilized. A small hole was made in the kidney's thin […] capsule and a pipette containing ICC was carefully inserted therethrough under the capsule. The ICCs were deposited within the capsule, the pipette withdrawn and the abdominal wall and skin sutured.
In a first series of experiments an ICC standard dose of 2×3 μl corresponding to 600 ICC was injected. Three types of ICCs were compared:
(1) control, i.e. ICC islets cultured in medium RPMI 1640+10 mm nicotine amide+10% human serum (HS);
(2) ICC islets cultured in medium RPMI 1640+10 mm nicotine amide+10% human serum (HS)+9% of 1.5% HPMC in saline; […]
Numbers in square brackets indicate number of animals. […] Blood glucose was determined on day 7 and in weekly intervals thereafter. The arrow indicates nephrectomy, i.e., the kidney with ICC transplant was removed and blood glucose was determined one week thereafter. […]

[2] = tested on: fibroblast growth in ICC cultures; assay: Fibroblast growth in ICC cultures; format: cell-based, porcine; details: 1 mM DG
Text: (§1) (3) ICC islets cultured in medium RPMI 1640+10 mm nicotine amide+10% human serum (HS)+9% of 1.5% HPMC in saline+1 mm 2-deoxyglucose (DG).

fetal porcine ICCs = assay: Differentiation of fetal porcine ICCs (glucose stimulated release of insulin), separate experiments; format: cell-based
Text: as §1

## O=CC[C@@H](O)[C@H](O)[C@H](O)CO [DG, 2-deoxyglucose]
[1]
  Effect of DG on the reduction of blood glucose levels: clearly beneficial effect on the reduction of blood glucose levels
[2]
  Fibroblast growth: reduces fibroblast growth
Fetal porcine ICCs
  Differentiation giving rise to glucose stimulated release of insulin: does not affect the differentiation
